From patent US7268147B2, “Compounds useful for the treatment of diseases” (Pfizer Inc, priority 2003, dated 2007)

Biological target: T1, human β2 adrenergic receptor (Homo sapiens, UniProt P07550)
T1 construct: expressed in transfected cells; host or cells: CHO (Chinese Hamster Ovary) cells, CHOhβ2
Assay: Cell based cAMP β2 assay (cAMP-Flashplate, CHOhβ2 cells)
Details: CHO cells recombinantly expressing the human β2 adrenergic receptor
Method: According to another alternative, the agonist potency for the β2 receptor of the compounds of the formula (1) may also be determined by the measure of the concentration of compound according to the present invention required to produce half maximal effect (EC50) for the β2 receptor.
10 mM/100% DMSO (dimethylsulfoxide) stock of compound is diluted to required top dose in 4% DMSO. This top dose is used to construct a 10-point semi-log dilution curve, all in 4% DMSO. […] Data was expressed as % Isoprenaline response.
Cells were seeded to give about 90% confluency for testing.
25 μl/well each dose of compound was transferred into a cAMP-Flashplate® (NEN, SMP004B), with 1% DMSO as basal controls and 100 nM Isoprenaline as max controls. This was diluted 1:2 by the addition of 25 μl/well PBS. […] Compounds were incubated with 50 μu/well cells for 1 hour. […] Dose-response data was expressed as % Isoprenaline activity and fitted using a four parameter sigmoid fit.

T1 sequence (P07550 whole entry): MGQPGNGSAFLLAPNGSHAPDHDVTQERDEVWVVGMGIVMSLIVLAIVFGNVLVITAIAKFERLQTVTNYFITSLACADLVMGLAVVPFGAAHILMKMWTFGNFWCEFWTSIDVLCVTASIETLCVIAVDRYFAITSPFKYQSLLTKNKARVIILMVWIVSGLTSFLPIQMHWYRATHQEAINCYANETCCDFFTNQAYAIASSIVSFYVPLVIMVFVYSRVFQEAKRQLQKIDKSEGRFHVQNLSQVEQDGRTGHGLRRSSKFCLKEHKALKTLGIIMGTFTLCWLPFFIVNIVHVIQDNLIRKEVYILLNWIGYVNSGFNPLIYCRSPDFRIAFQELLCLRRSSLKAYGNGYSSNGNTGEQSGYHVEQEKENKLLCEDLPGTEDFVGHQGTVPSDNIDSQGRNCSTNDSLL

Structure (SMILES) | EC50 [nM]
C[C@H](Cc1cccc(CC(=O)NCCc2ccccc2)c1)NC[C@H](O)c1ccc(O)c(CO)c1 [Example 15, 2-(3-{(2R)-2-[(2R)-2-Hydroxy-2-(4-hydroxy-3-hydroxymethyl-phenyl)-ethylamino]-propyl}-phenyl)-N-(2-phenylethyl)acetamide] | 0.056
C[C@H](Cc1cccc(CC(=O)NCc2ccc(S(N)(=O)=O)cc2)c1)NC[C@H](O)c1ccc(O)c(CO)c1 [Example 6, N-[4-(Aminosulfonyl)benzyl]-2-(3-{(2R)-2-[(2R)-2-hydroxy-2-(4-hydroxy-3-hydroxymethyl-phenyl)-ethylamino]-propyl}-phenyl)-acetamide] | 0.007
C[C@H](Cc1cccc(CC(=O)NCc2ccccc2O)c1)NC[C@H](O)c1ccc(O)c(CO)c1 [Example 3, N-(2-Hydroxybenzyl)-2-(3-{(2R)-2-[(2R)-2-hydroxy-2-(4-hydroxy-3-hydroxymethyl-phenyl)-ethylamino]-propyl}-phenyl)-acetamide] | 0.007
C[C@H](Cc1cccc(CC(=O)NCc2ccccn2)c1)NC[C@H](O)c1ccc(O)c(CO)c1 [Example 7, 2-(3-{(2R)-2-[(2R)-2-Hydroxy-2-(4-hydroxy-3-hydroxymethyl-phenyl)-ethylamino]-propyl}-phenyl)-N-(pyridin-2-ylmethyl)-acetamide] | 0.028
C[C@H](Cc1cccc(CC(=O)NCc2ccc(Cl)c(Cl)c2)c1)NC[C@H](O)c1ccc(O)c(CO)c1 [Example 5, N-(3,4-Dichlorobenzyl)-2-(3-{(2R)-2-[(2R)-2-hydroxy-2-(4-hydroxy-3-hydroxymethyl-phenyl)-ethylamino]-propyl}-phenyl)-acetamide] | 0.024
C[C@H](Cc1cccc(CC(=O)NC2Cc3ccccc3C2)c1)NC[C@H](O)c1ccc(O)c(CO)c1 [Example 4, 2-(3-{(2R)-2-[(2R)-2-Hydroxy-2-(4-hydroxy-3-hydroxymethyl-phenyl)-ethylamino]-propyl}-phenyl)-N-indan-2-yl-acetamide] | 0.012
COc1cccc(OC)c1CNC(=O)Cc1cccc(C[C@@H](C)NC[C@H](O)c2ccc(O)c(CO)c2)c1 [Example 1, N-(2,6-Dimethoxybenzyl)-2-(3-{(2R)-2-[(2R)-2-hydroxy-2-(4-hydroxy-3-hydroxymethyl-phenyl)-ethylamino]-propyl}-phenyl)-acetamide] | 0.017

Next, values leading:

EC50 [nM] | Structure (SMILES)
0.114 | C[C@H](Cc1cccc(CC(=O)NCc2ccc(OC(F)(F)F)cc2)c1)NC[C@H](O)c1ccc(O)c(CO)c1 [Example 10, 2-(3-{(2R)-2-[(2R)-2-Hydroxy-2-(4-hydroxy-3-hydroxymethyl-phenyl)-ethylamino]-propyl}-phenyl)-N-(4-trifluoromethoxybenzyl)-acetamide]
0.009 | Cc1ccc(CNC(=O)Cc2cccc(C[C@@H](C)NC[C@H](O)c3ccc(O)c(CO)c3)c2)cc1C [Example 12, N-(3,4-Dimethylbenzyl)-2-(3-{(2R)-2-[(2R)-2-hydroxy-2-(4-hydroxy-3-hydroxymethyl-phenyl)-ethylamino]-propyl}-phenyl)-acetamide]
0.01 | C[C@H](Cc1cccc(CC(=O)NCc2ccc(C(N)=O)cc2)c1)NC[C@H](O)c1ccc(O)c(CO)c1 [Example 8, 4-{(2-(3-{(2R)-2-[(2R)-2-Hydroxy-2-(4-hydroxy-3-hydroxymethyl-phenyl)-ethylamino]-propyl}-phenyl)-acetylamino)-methyl}-benzamide]
